Measured values taken from patent US20250019385A1, “SPIROCYCLIC ANNULATED 2-AMINO-3-CYANO THIOPHENES AND DERIVATIVES FOR THE TREATMENT OF CANCER” (Boehringer Ingelheim International GmbH, priority 2023, published 2025).
≈ marks a conversion by molar mass, not a printed value.

molecular target: KRAS (G12D)::SOS1 protein-protein interaction (Homo sapiens (Human), UniProt P01116, G12D); experiment: KRAS::SOS1 AlphaScreen binding assay (KRAS G12D); details: GDP
From the text: (§1) This assay can be used to examine the potency with which compounds according to the invention binding to (mutated) KRAS inhibit the protein-protein interaction between SOS1 and (mutated) KRAS e.g. KRAS G12C, KRAS G12D. […] Low IC50 values in this assay setting are indicative of strong inhibition of protein-protein interaction between SOS1 and KRAS:
(§2) These assays measure the inhibitory effect of compounds on KRAS mutant protein-protein interactions using the Alpha Screen technology by Perkin Elmer.
(§3) The following (mutant) enzyme forms of KRAS and interacting proteins are used in these assays at the given concentrations:
KRAS (G12D) 1-169, N-terminal 6His-tag, C-terminal avi-tag (Xtal BioStructures, Inc.); final assay concentration 10 nM and SOS1 564-1049, N-terminal 229 GST-tag, TEV cleavage site (Viva Biotech Ltd); final assay concentration 5 nM;
(§4) Test compounds dissolved in DMSO are dispensed onto assay plates (Proxiplate 384 PLUS, white, PerkinElmer; 6008289) using an Access Labcyte Workstation with the Labcyte Echo 55x. For the chosen highest assay concentration of 100 μM, 150 nL of compound solution are transferred from a 10 mM DMSO compound stock solution. A series of eleven fivefold dilutions per compound are transferred to the assay plate, compound dilutions are tested in duplicates. DMSO are added as backfill to a total volume of 150 nL.
(§5) The assays run on a fully automated robotic system in a darkened room below 100 Lux. To 150 nl of compound dilution 10 μl of a mix including KRAS mutant protein, SOS1 (final assay concentrations see above) and GDP nucleotide (Sigma G7127; final assay concentration 10 μM) in assay buffer (1×PBS, 0.1% BSA, 0.05% Tween 20) are added into columns 1-24.
(§6) After 30 minutes incubation time 5 μl of Alpha Screen bead mix in assay buffer are added into columns 1-23. Bead mix consists of AlphaLISA Glutathione Acceptor Beads (PerkinElmer, Cat No AL109) and AlphaScreen Streptavidin Donor Beads (PerkinElmer Cat No 6760002) in assay buffer at a final assay concentration of 10 μg/mL each.
(§7) Plates are kept at room temperature in a darkened incubator. After an additional 60 minutes incubation time the signal is measured in a PerkinElmer Envision HTS Multilabel Reader using the AlphaScreen specs from PerkinElmer.
(§8) Each plate contains up to 16 wells of a negative control depending on the dilution procedure (platewise or serial) (DMSO instead of test compound; with KRAS mutant::SOS1 GOP mix and bead mix; column 23) and 16 wells of a positive control (DMSO instead of test compound; with KRAS mutant::SOS1 GOP mix w/o bead mix; column 24).
(§9) As internal control known inhibitors of KRAS mutant::SOS1 interaction can be measured on each compound plate.
(§10) IC50 values are calculated and analyzed with Boehringer Ingelheim's MEGALAB C50 application using a 4 parametric logistic model.
(§11) Tables of example compounds disclosed herein contain IC50 values determined using the above assays (see Table 43).

KRAS (G12D)::SOS1 protein-protein interaction, sequence (P01116 other isoform, or with tags, fused parts or gaps G12D): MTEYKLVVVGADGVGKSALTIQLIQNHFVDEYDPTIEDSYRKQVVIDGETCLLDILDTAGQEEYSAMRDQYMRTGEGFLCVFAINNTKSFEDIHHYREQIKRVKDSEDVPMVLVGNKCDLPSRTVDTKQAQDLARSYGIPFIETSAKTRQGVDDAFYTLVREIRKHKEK

Row | Compound | IC50
1 | C[C@H](Oc1nc(-c2onc3c2CCC[C@@]32CCCc3sc(N)c(C#N)c32)nc2c1n(C)c(=O)n2[C@H]1CO[C@@H](C)C1)[C@@H]1CC[C@H](C)N1C [I-50] | 4 nM
2 | C[C@H](Oc1nc(-c2onc3c2CCC[C@@]32CCCc3sc(N)c(C#N)c32)nc2c1n(C)c(=O)n2[C@@]12COC[C@@H]1C2)[C@@H]1CC[C@H](C)N1C [I-45] | 1 nM
3 | C[C@H](Oc1nc(-c2noc3c2CCC[C@@]32CCCc3sc(N)c(C#N)c32)nc2c1CCCO[C@]21CCOC1)[C@@H]1CCCN1C [II-10] | 1 nM
4 | C[C@H](Oc1nc(-c2noc3c2CCC[C@@]32CCCc3sc(N)c(C#N)c32)nc2c1CN(C1COC1)C[C@]21CCOC1)[C@@H]1CC[C@H](C)N1C [II-17] | 1 nM
5 | C[C@H](Oc1nc(-c2noc3c2CCC[C@@]32CCCc3sc(N)c(C#N)c32)nc2c1CC[C@]21CNCCO1)[C@@H]1C[C@@H](F)CN1C [II-20] | 1 nM
6 | CO[C@@H]1C[C@@H]([C@H](C)Oc2nc(-c3noc4c3CCC[C@@]43CCCc4sc(N)c(C#N)c43)nc3c2CN(C2COC2)C[C@]32CCOC2)N(C)C1 [II-14] | 1 nM

tested on: not listed separately; experiment: Solubility measurement (DMSO solution precipitation method); format: physicochemical; details: McIlvaine buffer pH 4.5, 24 h, from DMSO stock
Protocol: A 10 mM DMSO stock solution of a test compound is used to determine its aq. solubility. The DMSO solution is diluted with an aq. medium (McIlvaine buffer with pH=4.5 or 6.8) to a final concentration of 250 μM. After 24 h of shaking at ambient temperature a potentially formed precipitate is removed by filtration. The concentration of the test compound in the filtrate is determined by LC-UV methods by calibrating the signal to the signal of a reference solution with complete dissolution of the test compound in acetonitrile/water (1:1) with known concentration.

Row | Compound | solubility pH 4.5
7 | C[C@H](Oc1nc(-c2noc3c2CCC[C@@]32CCCc3sc(N)c(C#N)c32)nc2c1CC[C@]21CNCCO1)[C@@H]1C[C@@H](F)CN1C [II-20] | >156 μg/ml

same assay, conditions: McIlvaine buffer pH 6.8, 24 h, from DMSO stock

Row | Compound | solubility pH 6.8
8 | C[C@H](Oc1nc(-c2noc3c2CCC[C@@]32CCCc3sc(N)c(C#N)c32)nc2c1CC[C@]21CNCCO1)[C@@H]1C[C@@H](F)CN1C [II-20] | >156 μg/mL

same assay, conditions: aqueous buffer, kinetic from dmso stock, McIlvaine buffer pH 4.5, 24 h, read-out: solubility pH 4.5

Row | Compound | solubility at 24 h
9 | C[C@H](Oc1nc(-c2onc3c2CCC[C@@]32CCCc3sc(N)c(C#N)c32)nc2c1n(C)c(=O)n2[C@H]1CO[C@@H](C)C1)[C@@H]1CC[C@H](C)N1C [I-50] | 124 µg/mL (≈ 188 µM)
10 | C[C@H](Oc1nc(-c2onc3c2CCC[C@@]32CCCc3sc(N)c(C#N)c32)nc2c1n(C)c(=O)n2[C@@]12COC[C@@H]1C2)[C@@H]1CC[C@H](C)N1C [I-45] | > 135 µg/mL
11 | C[C@H](Oc1nc(-c2noc3c2CCC[C@@]32CCCc3sc(N)c(C#N)c32)nc2c1CN(C1COC1)C[C@]21CCOC1)[C@@H]1CC[C@H](C)N1C [II-17] | > 138 µg/mL
12 | CO[C@@H]1C[C@@H]([C@H](C)Oc2nc(-c3noc4c3CCC[C@@]43CCCc4sc(N)c(C#N)c43)nc3c2CN(C2COC2)C[C@]32CCOC2)N(C)C1 [II-14] | > 149 µg/mL

same assay, conditions: aqueous buffer, kinetic from dmso stock, McIlvaine buffer pH 6.8, 24 h, read-out: solubility pH 6.8

Row | Compound | solubility at 24 h
13 | C[C@H](Oc1nc(-c2onc3c2CCC[C@@]32CCCc3sc(N)c(C#N)c32)nc2c1n(C)c(=O)n2[C@H]1CO[C@@H](C)C1)[C@@H]1CC[C@H](C)N1C [I-50] | 103 µg/mL (≈ 156 µM)
14 | C[C@H](Oc1nc(-c2onc3c2CCC[C@@]32CCCc3sc(N)c(C#N)c32)nc2c1n(C)c(=O)n2[C@@]12COC[C@@H]1C2)[C@@H]1CC[C@H](C)N1C [I-45] | 85 µg/mL (≈ 129 µM)
15 | C[C@H](Oc1nc(-c2noc3c2CCC[C@@]32CCCc3sc(N)c(C#N)c32)nc2c1CN(C1COC1)C[C@]21CCOC1)[C@@H]1CC[C@H](C)N1C [II-17] | 102 µg/mL (≈ 152 µM)
16 | CO[C@@H]1C[C@@H]([C@H](C)Oc2nc(-c3noc4c3CCC[C@@]43CCCc4sc(N)c(C#N)c43)nc3c2CN(C2COC2)C[C@]32CCOC2)N(C)C1 [II-14] | 114 µg/mL (≈ 166 µM)

molecular target: KRAS (G12C)::SOS1 protein-protein interaction (Homo sapiens (Human), UniProt P01116, C118S/C51S/C80L/G12C); experiment: KRAS::SOS1 AlphaScreen binding assay (KRAS G12C); details: GDP
Sequence (P01116 other isoform, or with tags, fused parts or gaps G12C/C51S/C80L/C118S): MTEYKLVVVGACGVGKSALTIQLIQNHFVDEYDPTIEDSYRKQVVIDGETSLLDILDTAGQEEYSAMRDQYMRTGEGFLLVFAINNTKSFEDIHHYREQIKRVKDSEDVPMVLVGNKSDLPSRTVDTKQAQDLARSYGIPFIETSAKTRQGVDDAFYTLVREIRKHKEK
From the text: as §1, §2, §3
KRAS (G12C) 1-169, N-terminal 6His-tag for purification, cleaved off, C-terminal avi-tag, biotinylated, mutations: C51S, C80L, C118S (in house); final assay concentration 7.5 nM and SOS1 564-1049, N-terminal 229 GST-tag, TEV cleavage site (Viva Biotech Ltd); final assay concentration 5 nM;
as §4, §5, §6, §7, §8, §9, §10, §11

Row | Compound | IC50
17 | C[C@H](Oc1nc(-c2noc3c2CCC[C@@]32CCCc3sc(N)c(C#N)c32)nc2c1CCCO[C@]21CCOC1)[C@@H]1CCCN1C [II-10] | 1 nM
18 | C[C@H](Oc1nc(-c2noc3c2CCC[C@@]32CCCc3sc(N)c(C#N)c32)nc2c1CC[C@]21CNCCO1)[C@@H]1C[C@@H](F)CN1C [II-20] | 2 nM

tested on: MKN1 cells; experiment: MKN1 CTG proliferation assay (120 h) (gastric cancer, wt amplified); format: cell-based; details: Homo sapiens, MKN-1
Protocol: MKN1 cells (JCRB0252) are dispensed into black 384-well plates, flat and clear bottom (Greiner, PNr. 781091) at a density of 200 cells per well in 60 μl RPMI-1640 ATCC-Formulation (Gibco #A10491)+10% FCS (fetal calf serum, HyClone, SH30084.03). Cells are incubated overnight at 37° C. in a humidified tissue culture incubator at 5% CO2. Compounds (10 mM stock in DMSO) are added at logarithmic dose series using the ECHO acoustic liquid handler system (Beckman Coulter), normalizing for added DMSO and including DMSO controls. All compound treatments are performed in technical duplicates. For the TO time point measurement, untreated cells are analyzed at the time of compound addition. Plates are incubated for 120 h, and cell viability is measured using CellTiter-Glo luminescent cell viability reagent (Promega product code G7570). Viability (stated as percent of control) is defined as relative luminescence units RLU of each well divided by the RLU of cells in DMSO controls. IC50 values are determined from viability measurements by non-linear regression using a four-parameter model.
IC50 values of representative compounds according to the invention measured with these assays in the indicated cell lines are presented in Table 46.

Row | Compound | IC50
19 | C[C@H](Oc1nc(-c2onc3c2CCC[C@@]32CCCc3sc(N)c(C#N)c32)nc2c1n(C)c(=O)n2[C@@]12COC[C@@H]1C2)[C@@H]1CC[C@H](C)N1C [I-45] | 11 nM
20 | C[C@H](Oc1nc(-c2noc3c2CCC[C@@]32CCCc3sc(N)c(C#N)c32)nc2c1CCCO[C@]21CCOC1)[C@@H]1CCCN1C [II-10] | 10 nM
21 | C[C@H](Oc1nc(-c2noc3c2CCC[C@@]32CCCc3sc(N)c(C#N)c32)nc2c1CN(C1COC1)C[C@]21CCOC1)[C@@H]1CC[C@H](C)N1C [II-17] | 20 nM
22 | CO[C@@H]1C[C@@H]([C@H](C)Oc2nc(-c3noc4c3CCC[C@@]43CCCc4sc(N)c(C#N)c43)nc3c2CN(C2COC2)C[C@]32CCOC2)N(C)C1 [II-14] | 19 nM
